Measured values: patent publication US6337316B1, “Pharmaceutical compositions thereof, and methods of using same” (Applied Research Systems ARS Holding N.V., priority 1997, dated 2002)
Where two headings read alike, the source gives them in different places. Bridge positions count the residues as written; N and C are the ends. Ends that are not written are not given here. iodoacetamide‑alkyl = not defined here

Experiments:
[1] = system: lymphocyte proliferation in the human MLR; assay type: cell-based; details: for Human MLR (ability to inhibit lymphocyte proliferation, cpm): peptide 12.5 to 100 μM, assays of 1/24, 1/31, 3/6, 4/17, 5/2, one symbol per assay; for effect on the human MLR in combination with CTLA-4Ig: CTLA-4Ig spiked in at 0.5 μg/ml (FIG. 8); for effect on the MLR, retest: two MLRs, peptide by itself, concentrations up to 200 μM
Description: Whole blood from donors was obtained from Interstate Blood Bank, Memphis, Tenn. Blood specimens were handled in a biosafety level 2 containment facility as recommended for potentially infectious blood specimens in the CDC/NIH manual Biosafety in Microbiological and Biomedical Laboratories; 3rd edition, 1993, page 10. Peripheral blood mononuclear cells (PBMC) were separated from red blood cells and granulocytes by ficoll-hypaque purification. Whole peripheral blood was diluted 1:2 in PBS and 30 ml was overlayed onto 15 ml of ficoll-hypaque in 50 ml polypropylene tubes. The tubes were spun at 400×g for 30 min at 25° C. Following centrifugation, the interface between the upper plasma layer and the lower ficoll layer was collected, cells washed in RPMI-1640 2×, and viable counts determined using trypan blue. Cells to be used as responders in the assay were stored on ice until mitomycin C treatment of stimulator cells was completed.
PBMC, isolated as described above, to be used as stimulators in the assay were adjusted to 2-4×10^6 cells/ml in complete medium (RPMI 1640 containing 10% heat-inactivated human AB serum, 2 mM glutamine, 50 μM 2-mercaptoethanol and 100 U/ml penicillin-100 μg/ml streptomycin), and treated with mitomycin C (25 μg/ml) for 30 min in a 37° C. water bath. Following treatment, cells were washed with S volumes of complete medium 3×, and viable counts determine using trypan blue. To set up autologous stimulation controls some responder cells were also treated with mitomycin C as mentioned above.
Purified CTLA-4Ig fusion protein was produced, as described in Steurer et al. 1995, from a NS-1 cell line kindly donated by Dr. T. Strom (Beth Israel Hospital, Boston, Mass.) as a 1 mg/ml solution in sterile PBS. The protein was stored frozen at −80° C. Upon thawing, the aliquot was stored at 4° C. Purified peptides were lyophilized according to known procedures. Peptides were reconstituted in sterile PBS, pH 7.4 at 2 mM concentration, aliquoted in microfuge cubes and stored frozen at −20° C. For the assay, an aliquot of the peptide was thawed and diluted to 200 μM in complete medium.
For the one-way allogeneic mixed lymphocyte response (MLR) assay, responder cells were plated at 10^6 cells/well, and stimulator cells at 5×10^4 cells/well in 96-well round bottom plates. Cells were incubated with serial dilutions of the anti-CD4 Ab Leu 3A (1 μg/ml-0.06 μg/ml) in triplicate, or an isotype-matched control Ab. Cyclosporin A at 1 μg/ml was used as an additional control.
CTLA-4 Ig was serially diluted an.4 tested from 10 μg/ml to 0.15 μg/ml. Peptides were tested either directly or in the presence of a constant spiked-in dose of CTLA-4 Ig at 0.5 μg/ml. The plates were incubated at 37° C. in a humidified 5% CO2 atmosphere for 7 days.
Proliferation of the cells was determined by pulsing the wells with ^3H-Tdr (1 μCi/well) for the last 18 h of the assay. Plates were harvested using a Tomtec -late harvester and the counts incorporated determined using a Wallac microbetaplate plus reader.
A total of 34 peptides were tested for inhibition of lymphocyte proliferation in the human MLR. Each peptide was tested in a MLR at doses ranging from 12.5 to 100 μM. The activity of each peptide was identified by assigning a + and − tone peptide depending on its ability to inhibit lymphocyte proliferation in the MLR (cpms).

[2] = system: binding of CTLA-4Ig to B7 on Cess B cells; test: CTLA-4Ig/B7 binding assay on Cess B cells by FACS; design: key to Binding Assay (effect on CTLA-4Ig binding to Cess B cells): −: no change in binding; +: a minor change of <10% in binding; ++: a change of >20% in binding; details: for Binding Assay (effect on CTLA-4Ig binding to Cess B cells): FACS, assays of 3/24, 3/25, 4/5, 4/25, one symbol per assay; for effect on CTLA-4Ig binding, retest in the Cess B binding assay: retest of positives from primary screening
Description: +++ was assigned if the peptide tested gave >50% change in cpm in a dose dependent fashion. In addition to the MLR, these 34 peptides were also evaluated in a CTLA-4Ig/B7 binding assay in which the ability of these peptides to affect the binding of CTLA-4Ig to B7 on Cess B cells was examined by FACS analysis.
As with the MLR, a + or − was assigned to each peptide depending on its ability to effect CTLA-4Ig binding to Cess B cells; where − represents no change in binding, + represents a minor change of <10% in binding, and a ++ represents a change of >20% in binding.

Substance	Human MLR (ability to inhibit lymphocyte proliferation, cpm) [1]	Binding Assay (effect on CTLA-4Ig binding to Cess B cells) [2]	other results
ADSQVTEV [AT 127.1]	−, −	+/−, +/−	
ADSQVTEV-OH [AT 124.1]	−, −	+, −	
AT 199.2A: resynthesis of AT 199.1, refolding prolonged to 5 days at pH 10.0; fully cyclized version (RKCLMYPPPYYCHH; disulfide 3-12 (inferred); not fully specified (C-terminus))			inhibition of the human MLR ([1]; 100 μM, another MLR): 25%; inhibition of the human MLR ([1]; 100 μM, one MLR): 50%; effect on the human MLR in combination with CTLA-4Ig [1]: additive
AT 199.2B: AT 199 treated with iodoacetamide, purely linear analog with alkylated cysteines (RKC(iodoacetamide‑alkyl)LMYPPPYYC(iodoacetamide‑alkyl)HH; not fully specified (C-terminus); reading uncertain)			effect on the human MLR in combination with CTLA-4Ig [1]: no effect; inhibition of the MLR, in words ([1]; control and linear peptides compared with AT 199): no effect; inhibition of the human MLR ([1]; the MLR's, highest concentration (100 μM) tested): < 10%
CDDSIC (disulfide 1-6 (inferred)) [AT 131.1]	+, −, −		
CEYASPGKATEVC (disulfide 1-13 (inferred)) [AT 123.1]	−, −	+/−, −	
CKGLDSAVEC (disulfide 1-10 (inferred)) [AT 108.1]	−, −, −	−	
CKIEVMYPPPYC (disulfide 1-12 (inferred)) [AT 113.1]	− (all concentrations of peptide tested gave <15% change in cpm)	−, −	
CKIEVMYPPPYLC (disulfide 1-13 (inferred)) [AT 114.1]	Toxic	Toxic	
CKYSYNLFSREFC (disulfide 1-13 (inferred)) [AT 107.1]	−, +, +, −		
CMYPPPYGKC (disulfide 1-10 (inferred)) [AT 110.1]	− (all concentrations of peptide tested gave <15% change in cpm)	−, −	
CMYPPPYKAKC (disulfide 1-11 (inferred)) [AT 112.1]	− (all concentrations of peptide tested gave <15% change in cpm)	−, −	
CMYPPPYYKAKC (disulfide 1-12 (inferred)) [AT 130.1]	−, −	−, −	
CMYPPPYYRGGKC (disulfide 1-13 (inferred)) [AT 129.1]	−, −	++ (a change of >20% in binding)	
CMYPPQYGKC (disulfide 1-10 (inferred)) [AT 111.1]	−, +/−	−	
CMYPPYLRGGKC (disulfide 1-12 (inferred)) [AT 109.1]		−, +	
CRQADSQVTEC (disulfide 1-11 (inferred)) [AT 128.1]	++, −	+ (a minor change of <10% in binding)	effect on the MLR, retest [1]: none of these peptide by themselves had any consistent effect; effect on CTLA-4Ig binding, retest in the Cess B binding assay [2]: no effect
CSKTGFNC (disulfide 1-8 (inferred)) [AT 115.1]	− (all concentrations of peptide tested gave <15% change in cpm)	−	
CSPNQC (disulfide 1-6 (inferred)) [AT 135.1]	+/−, −	++ (a change of >20% in binding)	effect on the MLR, retest [1]: none of these peptide by themselves had any consistent effect; effect on CTLA-4Ig binding, retest in the Cess B binding assay [2]: no effect
CSSGNQVC (disulfide 1-8 (inferred)) [AT 132.1]	+, −, −	+, −	
CSSPNQVC (disulfide 1-8 (inferred)) [AT 133.1]	++, +	++, −	effect on the MLR, retest [1]: none of these peptide by themselves had any consistent effect; effect on CTLA-4Ig binding, retest in the Cess B binding assay [2]: no effect
ECASPGKATEVC (not fully specified (bridges); cysteine pairing not given here) [AT 118.1]	− (all concentrations of peptide tested gave <15% change in cpm)		
HVAQPA [AT 136.1]	++, +, −	+++, +	effect on the MLR, retest [1]: none of these peptide by themselves had any consistent effect; effect on CTLA-4Ig binding, retest in the Cess B binding assay [2]: no effect
HVEQPA [AT 137.1]	−, +	+/−, −	
HVEQPA-OH [AT 125.1]	−, −	−, +	
KCSYNLFSREFC (not fully specified (bridges); cysteine pairing not given here) [AT 106.1]	++, +, +, +/−	++, ++	effect on the MLR, retest [1]: none of these peptide by themselves had any consistent effect; effect on CTLA-4Ig binding, retest in the Cess B binding assay [2]: no effect
KILVKQS [AT 119.1]	−, +/−	−	
KILVKQS-OH [AT 121.1]	+/−, −		
KYLVKQS [AT 120.1]	−, +/−	−	
